Reference: patent US20070048355A1, “Non-irritating solvent-borne polymeric coatings for application to the skin” (priority 2005, published 2007)

System: freshly abraided skin on a finger knuckle
Assay: standard sting test on abraded finger knuckle skin
Format: in vivo, human
Settings: for stinging of aliphatic hydrocarbon diluent solvents (in words): neat alkane on abraded skin
Text: The preparations described above were applied to skin that had been carefully abraided shortly before testing to determine whether the stinging and discomfort caused by collodion application could be suppressed by one or more of these agents. The procedure used was to manually scour a finger knuckle using 100 grit garnet sandpaper just to the point of slight bleeding, and then allowing the skin to rest a minute or so until any discomfort, i.e., sensation of irritation, pain or heat, had disappeared prior to challenging the abrasion with a potential chemical irritant. The resultant stinging sensation was compared to that produced with the unmodified commercial New Skin™ collodion product (the “control”). Sting (also termed and described as “burning sensation”) was rated on a five level scale as follows: (−) no sting, (+/−) barely detectable sting, (+) slight sting, (++) moderate sting, (+++) strong sting. […] This method of testing and scoring the level or magnitude of the stinging sensation is referred to herein as the “sting test” or “standard sting test.”
Using the “standard sting test” described above, and similarly abraded skin on a finger knuckle, individual collodion ingredients were tested neat (undiluted). Accordingly, a droplet or two of the mixture or the chemical ingredient was placed on freshly abraided skin.
Several new chemicals and solvents of potential interest were tested, and others that were formerly tested (all in their neat state) were re-tested using the standard sting test procedure and accompanying scoring system described above. Applicant's strategy behind this testing was to find a true solvent or alternatively, a combination of true solvent and either co-solvent or diluent, that would have sufficient volatility to allow rapid drying of a collodion coating without causing stinging when applied to the skin.

[1] = additional testing and re-testing of chemicals and solvents in their neat state, standard sting test
[2] = individual collodion ingredients tested neat (undiluted), a droplet or two on freshly abraided skin

Compound | LEVEL OF STING [1] | other results
CC(=O)OC(C)(C)C [tert-Butyl acetate] | +/− | 
Castor Oil |  | LEVEL OF STING (in vivo): −
CCOC(C)=O [Ethyl Acetate] |  | LEVEL OF STING (in vivo): +++
CCO [Ethyl Alcohol] | +++ | LEVEL OF STING [2]: +++
CO [Methyl alcohol] | +++ | 
CC(CO)CO [Methyl propanediol] | + | 
CCCCCCCC [n-Octane] | − | stinging of aliphatic hydrocarbon diluent solvents (in words): none of the aliphatic hydrocarbon diluent solvents that were tested caused any stinging
CCCCCCC [n-Heptane] | − | stinging of aliphatic hydrocarbon diluent solvents (in words): none of the aliphatic hydrocarbon diluent solvents that were tested caused any stinging
CCC(C)=O [Methyl ethyl ketone] | +++ | 
CC(C)CO [isobutyl alcohol] | + | 
Isohexane (e.g., 2-methyl pentane and other isomers) | − | 
CCCCCO [n-amyl alcohol] | + | 
CC(=O)OC(C)C [Isopropyl acetate] | + | 
CCCOC(C)=O [n-Propyl acetate] | + | 
CCCC(C)=O [Methyl propyl ketone] | ++ | 
CC(C)O [Isopropyl Alcohol] | ++ | LEVEL OF STING [2]: ++
CCCCCC [n-Hexane] | − | stinging of aliphatic hydrocarbon diluent solvents (in words): none of the aliphatic hydrocarbon diluent solvents that were tested caused any stinging
CCCCCOC(C)=O [Amyl Acetate (mixed isomers), Amyl Acetate] | +/− | LEVEL OF STING [2]: +/−
COC(C)=O [Methyl acetate] | +++ | 
CCCCOC(C)=O [n-Butyl Acetate] | +/− | LEVEL OF STING [2]: +/−
CC(C)=O [Acetone] | +++ | 
CCCCC [n-pentane] |  | stinging of aliphatic hydrocarbon diluent solvents (in words): none of the aliphatic hydrocarbon diluent solvents that were tested caused any stinging
